Columns and labels:
hPSC-derived mesoderm = assay: Quantitative RT-PCR gene expression of differentiating mesoderm (Example 11); format: cell-based, human; settings: longer and higher levels of Wnt activation (CHIR timing)
Experimental: Total RNA was prepared from differentiating human ES cells by using Nucleospin kit according to manufacturer's protocol. Reverse transcription PCR was performed by Superscript VILO cDNA synthesis kit. QuantStudio 5 and 6 were used for qPCR analyses. Statistics were performed with PRISM8 (GraphPad Software). Significance was determined by one-way ANOVA, followed by Tukey's test.
After SpM differentiation, the cells can be observed with an inverted microscope. The cells should be at 100% confluency (FIG. 9A). The efficiency of SpM induction can be checked by immunostaining for FOXF1 and/or ISL1, or expression of relative gene profiles as provided in Table 1.
The efficiency of organ-specific mesoderm differentiation can be checked by immunostaining for WT1, PITX1, FOXF1, NKX6.1, and/or TBX5, or expression of relative gene profiles as provided in Table 1.

[1] = test system: hPSC-derived lateral plate mesoderm / splanchnic mesoderm cultures; assay: RT-PCR of marker genes in hPSC-derived lateral plate/splanchnic mesoderm cultures (Example 9); format: cell-based, human; settings: primitive SM treated d4-d7
Experimental: Differentiation of hPSCs into lateral plate mesoderm was induced using previously described methods with modifications. In brief, partially confluent hPSCs were dissociated into very fine clumps in Accutase (Invitrogen) and passaged 1:18 onto new Geltrex-coated 24-well plates for immunocytochemistry and 12-well plates for RNA preparation in mTeSR1 with 1 μM thiazovivin (Tocris) ([…]). Next day, a brief wash with DMEM/F12 was followed with Day 0 medium (30 ng/mL Activin A (Cell Guidance Systems), 40 ng/mL. BMP4 (R&D Systems), 6 μM CHIR99021 (Tocris), 20 ng/mL FGF2 (Thermo Fisher), 100 nM PIK90 (EMD Millipore)) for 24 hours. A basal media composed of Advanced DMEM/F12, N2, B27, 15 mM HEPES, 2 mM […], penicillin-streptomycin was used for this Day 0 medium and all subsequent differentiations. On Day 1, a brief wash with DMEM/F12 was followed with Day 1 medium (1 μM A83-01 (Tocris), 30 ng/mL BMP4, 1 μM C59 (Cellagen Technology)) for 24 hours. For cardiac mesoderm generation, cells were cultured in 1 μM A83-01, 30 ng/mL BMP4, 1 μM C59, 20 ng/mL FGF2 from Day 2 to Day 4 (medium changed every day). From Day 4, cells were cultured in 200 μg/mL 2-phospho-ascorbic acid (Sigma), 1 μM XAV939 (Sigma), 30 ng/mL BMP4 for 3 days. […] Significance was determined by one-way ANOVA, followed by Tukey's test.

Structure (SMILES)	NKX6-1 expression (hPSC-derived mesoderm)	WNT2 expression (hPSC-derived mesoderm)	organ-specific SM-like lineage identity (gene expression) [1]
Cc1c[nH]c(-c2cnc(NCCNc3ccc(C#N)cn3)nc2-c2ccc(Cl)cc2Cl)n1 [CHIR, CHIR99021]	suppressed	promoted	–
c1ccc2c(Oc3nc(Nc4ccc(N5CCOCC5)cc4)c4ncn(C5CCCCC5)c4n3)cccc2c1 [HH-agonist, purmorphamine]	–	–	promoted gut tube identity and efficiently blocked the hepatic fate
